Source: patent US20250282753A1, “COMPOUNDS USEFUL FOR REDUCING URIC ACID” (ATOM BIOSCIENCE AMERICA CORPORATION, priority 2022, published 2025)

Tests used:
[1] = system: potassium oxonate-induced hyperuricemic rats; assay: Serum uric acid in potassium oxonate-induced hyperuricemic rats, 3 days of gavage (Example 35); format: in vivo, SD rats
Description: Compound 13 was a light yellow powder, and compounds 38 and 41 are pseudo-white powders, which are triturated with 0.5% CMC-Na just prior to use to prepare a 0.4 mg/mL suspension for gavage.
36 male SD rats weighed approximately 220-240 g after one week of adaptation. […] The drugs in each group were prepared into a corresponding concentration suspension, and the administration volume was 0.5 mL/100 g.
After the rats in each group were purchased and adapted to feeding, they were fasted for 12 h, and, intraperitoneally, injected with⋅ potassium⋅ gxonate at a⋅dose of 300 mg/kg to establish the model. 0.5 h after modeling, each test drug group was gavaged once. The drug was administered continuously for 3 days. On day 3, blood samples was collected from the retro-orbital venous plexus before and 1, 3, and 5 h after potassium oxonate injection. The samples were centrifuged at 3500 rpm for 10 min, and 30 μL of serum was collected to determine the uric acid level at each time point.
The measurement data of each test were expressed as (mean)±standard deviation). The comparison between groups used ANOVA-Dunnett T test to examine the significance. P<0.05 was used as the significance index, and P<0.01 was used as the extremely significant index.

[2] = system: potassium oxonate-induced hyperuricemic rats; assay: Serum uric acid in potassium oxonate-induced hyperuricemic rats, single gavage (Example 34); format: in vivo, SD rats; conditions: for Uric acid 1 h / Uric acid 3 h / Uric acid 5 h: serum, mean ± SD; for Uric acid 1 h: 1 h after potassium oxonate injection; for Uric acid 3 h: 3 h after potassium oxonate injection; for Uric acid 5 h: 5 h after potassium oxonate injection
Description: 36 male SD rats weighed approximately 200-230 g after one week of adaptation. […] The drugs in each group were prepared into a corresponding concentration suspension, and the administration volume was 0.5 mL/100 g.
After the rats in each group were purchased and adapted to feeding, they were fasted for 12 h, and intraperitoneally injected with potassium oxonate at a dose of 300 mg/kg to establish the model. After 0.5 h of model establishment, each test drug group was gavaged once. Blood was collected from the retro-orbital venous plexus before and 1, 3, and 5 h after potassium oxonate injection. The samples were centrifuged at 3500 rpm for 10 min. 30 μL of serum was collected to determine the uric acid level at each time point.
The measurement data of each test were expressed as (mean)+standard deviation). The comparison between groups used ANOVA-Dunnett T test to examine the significance. P<0.05 was used as the significance index, and P<0.01 was used as the extremely significant index.

[3] = cited from earlier work; for Sudden cardiac death, number of cases / Sudden cardiac death, share of group: per treatment group
[4] = allopurinol used at the maximum dose; cited from earlier work
[5] = cited from earlier work
[6] = Febuxostat group vs allopurinol group

Compound: Cc1nc(-c2ccc(OCC(C)C)c(C#N)c2)sc1C(=O)O [Febuxostat, reference compound]
- serum uric acid level compared with the model group at the same time point ([1]; 2 mg/kg for 3 days, 1, 3, and 5 h after modeling, P<0.01): significantly reduce
- Uric acid 0 h ([1]; serum, 2 mg/kg gavage for 3 days, day 3, 0 h, before potassium oxonate injection, mean ± SD, n=6): 39.2 ± 6.2 µmol/L
- Uric acid 1 h ([1]; serum, 2 mg/kg gavage for 3 days, day 3, 1 h after potassium oxonate injection, mean ± SD): 34.4 ± 7.1 µmol/L
- Uric acid 3 h ([1]; serum, 2 mg/kg gavage for 3 days, day 3, 3 h after potassium oxonate injection, mean ± SD): 31.2 ± 7.6 µmol/L
- Uric acid 5 h ([1]; serum, 2 mg/kg gavage for 3 days, day 3, 5 h after potassium oxonate injection, mean ± SD): 24.7 ± 4.7 µmol/L
- serum uric acid level compared with the model group at the same time point ([2]; 1 mg/kg and 2 mg/kg, 1, 3, and 5 h after modeling, P<0.01): significantly reduce
- Uric acid 1 h ([2]; 1 mg/kg gavage once): 78.0 ± 17.5 µmol/L
- Uric acid 3 h ([2]; 1 mg/kg gavage once): 63.3 ± 13.8 µmol/L
- Uric acid 5 h ([2]; 1 mg/kg gavage once): 59.0 ± 9.8 µmol/L
- Uric acid 1 h ([2]; 2 mg/kg gavage once): 40.6 ± 10.6 µmol/L
- Uric acid 3 h ([2]; 2 mg/kg gavage once): 50.1 ± 10.7 µmol/L
- Uric acid 5 h ([2]; 2 mg/kg gavage once): 61.4 ± 7.1 µmol/L
- increase in all-cause mortality [3, 6]: 22%
- increase in cardiovascular mortality [3, 6]: 34%
- all-cause mortality, HR ([3]; Febuxostat vs allopurinol group, 95% CI 1.01-1.47): 1.22
- cardiovascular mortality, HR ([3]; Febuxostat vs allopurinol group, 95% CI 1.03-1.73): 1.34
- overall risk of adverse cardiovascular events, HR ([3]; Febuxostat vs allopurinol group, average of 32 months of treatment, 95% CI 0.87-1.23): 1.03
- Sudden cardiac death, number of cases [3]: 83 cases
- Sudden cardiac death, share of group [3]: 2.7%

Compound: Oc1ncnc2[nH]ncc12 [allopurinol]
- rate of subjects reaching the treatment endpoint [4]: less than 50%
- Sudden cardiac death, number of cases [3]: 56 cases
- Sudden cardiac death, share of group [3]: 1.8%

Compound: Pegloticase
- patients experiencing severe immune allergic side effects ([5]; human, in vivo, iv): 20-40%
- patients reaching the treatment endpoint of below 0.36 mmol/L ([5]; intravenous injection): 47%
